Here are results for three compounds from patent EP0485583B1, “USE OF TETRAHYDROISOQUINOLINE DERIVATIVES FOR PREPARING ANTITUMORAL DRUGS” (ROUSSEL-UCLAF, priority 1990, dated 1991).

SMILES strings stand for the structures.

T1 sequence (P00533 25-1210): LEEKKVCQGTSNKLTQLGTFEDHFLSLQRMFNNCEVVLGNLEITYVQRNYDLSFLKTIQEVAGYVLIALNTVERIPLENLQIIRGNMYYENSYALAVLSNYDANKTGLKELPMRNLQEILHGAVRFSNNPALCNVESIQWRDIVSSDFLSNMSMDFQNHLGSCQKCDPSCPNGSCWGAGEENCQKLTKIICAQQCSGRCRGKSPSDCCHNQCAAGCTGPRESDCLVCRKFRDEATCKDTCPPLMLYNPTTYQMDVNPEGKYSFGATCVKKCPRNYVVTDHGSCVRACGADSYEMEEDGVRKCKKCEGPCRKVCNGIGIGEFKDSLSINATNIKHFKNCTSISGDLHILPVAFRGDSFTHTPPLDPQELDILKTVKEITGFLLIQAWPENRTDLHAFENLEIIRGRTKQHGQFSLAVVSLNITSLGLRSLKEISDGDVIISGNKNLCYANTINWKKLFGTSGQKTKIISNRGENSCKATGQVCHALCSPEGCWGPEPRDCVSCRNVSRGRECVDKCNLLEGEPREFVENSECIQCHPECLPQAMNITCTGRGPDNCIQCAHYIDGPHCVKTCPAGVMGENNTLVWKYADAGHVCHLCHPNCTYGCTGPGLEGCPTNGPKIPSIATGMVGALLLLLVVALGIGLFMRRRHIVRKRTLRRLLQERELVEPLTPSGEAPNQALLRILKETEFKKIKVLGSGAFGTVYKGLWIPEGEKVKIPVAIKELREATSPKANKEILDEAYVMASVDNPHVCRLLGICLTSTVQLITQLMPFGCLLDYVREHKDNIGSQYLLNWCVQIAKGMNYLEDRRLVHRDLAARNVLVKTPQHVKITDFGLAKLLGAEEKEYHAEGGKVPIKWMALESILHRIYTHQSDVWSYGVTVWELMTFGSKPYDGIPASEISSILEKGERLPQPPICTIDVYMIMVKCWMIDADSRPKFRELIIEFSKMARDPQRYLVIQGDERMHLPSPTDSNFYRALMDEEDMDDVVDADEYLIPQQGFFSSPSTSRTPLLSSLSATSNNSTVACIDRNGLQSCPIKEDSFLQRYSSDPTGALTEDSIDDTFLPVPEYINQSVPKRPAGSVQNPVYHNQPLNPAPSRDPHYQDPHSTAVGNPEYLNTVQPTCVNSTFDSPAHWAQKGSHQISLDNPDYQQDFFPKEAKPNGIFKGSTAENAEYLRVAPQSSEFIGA

The test concerns the target T1, tyrosinekinase du récepteur de l'EGF (Epidermal Growth Factor) (Homo sapiens, UniProt P00533).
T1 construct: On utilise des membranes de cellules A431 (ATCC CRL 1555) comme source de récepteurs de l'EGF; host or cells: A431 cell membranes
Kind of test: Inhibition of EGF receptor tyrosine kinase (A431 cell membranes, 32P incorporation into poly(Glu, Ala, Tyr 6:3:1)). In kind it is biochemical. To be noted: A431 cell membranes (ATCC CRL 1555); samples containing substrate poly(Glu, Ala, Tyr 6:3:1) and EGF; 15 minutes at 30°C; dilution series starting at 51 microgrammes/ml; read-out: CI₅₀ (converted). Here is the method:
Mesure de l'inhibition de la tyrosinekinase du récepteur de l'EGF (Epidermal Growth Factor).
Cette lignée cellulaire exprime à sa surface un grand nombre de récepteur de l'EGF qui possèdent une activité tyrosinekinase.
Ces cellules sont préincubées avec ou sans EGF (1000 nM) pendant 15 minutes et ajoutées au tampon HEPES (acide N-2-hydroxyéthyl-piperazine N'-2-éthanesulfonique) correspondant (avec ou sans EGP) et contenant des ions Mg²⁺ (10 mM) et Mn²⁺ (2 mM) 0,2 % de triton X-100, de l'orthovanadate de sodium (20 micromoles) et l'inhibiteur.
Des échantillons contenant ou ne contenant pas le substrat poly(Glu, Ala, Tyr 6 : 3 : 1) sont préparés. On initie la réaction par addition de [gamma³²P] ATP (32 micromoles). Après incubation pendant 15 minutes à 30°C les échantillons sont précipités à l'aide d'acide […] à 10 %, filtrés sur membrane Millipore ® et le ³²P incorporé est mesuré avec un compteur de scintillation liquide.
For `Oc1ccc(CC2NCCc3cc(O)c(O)cc32)cc1O` (stereo not drawn) [Produit A, 1-[(3,4-dihydroxyphényl)méthyl] 1,2,3,4-tétrahydro isoquinoléïne 6,7-diol], the IC50 is 3.83 µM.

Take `Oc1ccc2[nH]c3c(c2c1)CCNC3Cc1ccc(O)c(O)c1` (stereo not drawn) [Produit B, 1,2-benzènediol 4-(2,3,4,9-tétrahydro 6-hydroxy-1H-pyrido[3,4-b]indol 1-yl) méthyl]: the IC50 was 8.06 µM.

Take `Oc1cc2c(cc1O)CC(Cc1ccccc1)NC2` (stereo not drawn) [Produit de l'exemple 1, Bromhydrate du 3-phénylméthyl 1,2,3,4-tétrahydro, isoquinoléïne 6,7-diol]: the IC50 was 13.3 µM.
